Test results taken from ChEMBL document CHEMBL3400048, “N-acylated sulfonamide congeners of fosmidomycin lack any inhibitory activity against DXR” (Bioorg Med Chem Lett, 2015).
Activity calls are given as the source filed them. The calls are words filed in the database; no cut-off is given here.

Assays:
[1] = target: T1, 1-deoxy-D-xylulose 5-phosphate reductoisomerase (Escherichia coli K-12) (UniProt P45568); assay: Inhibition of Escherichia coli DXR activity using DXP as substrate assessed as residual activity preincubated at 100 uM for 5 mins before substrate addition measured every 3 seconds for 180 seconds by spectrophotometric assay
T1 sequence (whole entry): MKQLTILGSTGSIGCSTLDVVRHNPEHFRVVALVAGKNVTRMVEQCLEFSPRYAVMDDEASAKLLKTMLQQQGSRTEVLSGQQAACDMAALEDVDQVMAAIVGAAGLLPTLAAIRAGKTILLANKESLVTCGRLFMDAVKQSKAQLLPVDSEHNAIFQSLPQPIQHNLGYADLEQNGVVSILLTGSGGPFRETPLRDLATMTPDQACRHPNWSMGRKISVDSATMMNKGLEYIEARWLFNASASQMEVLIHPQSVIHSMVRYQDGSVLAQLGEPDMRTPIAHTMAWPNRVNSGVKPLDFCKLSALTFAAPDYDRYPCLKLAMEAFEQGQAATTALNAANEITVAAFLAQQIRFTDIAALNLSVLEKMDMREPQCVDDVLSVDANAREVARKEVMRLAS

Candida albicans = assay: Antimicrobial activity against Candida albicans at 64 uM; format: functional, organism-based
Plasmodium falciparum = assay: Antimicrobial activity against Plasmodium falciparum K1 at 64 uM; format: functional, organism-based
Leishmania infantum = assay: Antimicrobial activity against Leishmania infantum at 64 uM; format: functional, organism-based
Trichophyton rubrum = assay: Antimicrobial activity against Trichophyton rubrum at 64 uM; format: functional, organism-based
Escherichia coli = assay: Antimicrobial activity against Escherichia coli at 64 uM; format: functional, organism-based
Trypanosoma brucei = assay: Antimicrobial activity against Trypanosoma brucei at 64 uM; format: functional, organism-based
Aspergillus fumigatus = assay: Antimicrobial activity against Aspergillus fumigatus at 64 uM; format: functional, organism-based
Staphylococcus aureus = assay: Antimicrobial activity against Staphylococcus aureus at 64 uM; format: functional, organism-based
MRC5 = assay: Cytotoxicity against human MRC5 cells at 64 uM; format: cell-based; settings: mrc5, 64 µM
Pseudomonas aeruginosa = assay: Antimicrobial activity against Pseudomonas aeruginosa at 64 uM; format: functional, organism-based
Trypanosoma cruzi = assay: Antimicrobial activity against Trypanosoma cruzi at 64 uM; format: functional, organism-based

| Activity [1] [%] | Compound | Activity (Candida albicans) | Activity (Plasmodium falciparum) | Activity (Leishmania infantum) | Activity (Trichophyton rubrum) | Activity (Escherichia coli) | Activity (Trypanosoma brucei) | Activity (Aspergillus fumigatus) | Activity (Staphylococcus aureus) | Activity (MRC5) | Activity (Pseudomonas aeruginosa) | Activity (Trypanosoma cruzi) |
| --- | --- | --- | --- | --- | --- | --- | --- | --- | --- | --- | --- | --- |
| 100 | CC(=O)N(O)CCCS(=O)(=O)NC(=O)Cc1ccccc1 | inactive | inactive | inactive | inactive | inactive | inactive | inactive | inactive | Non-toxic | inactive | inactive |
| 100 | CC(=O)NS(=O)(=O)CCCN(O)C(C)=O | inactive | inactive | inactive | inactive | inactive | inactive | inactive | inactive | Non-toxic | inactive | inactive |
| 100 | CC(=O)N(O)CCCS(=O)(=O)NC(=O)CCc1ccccc1 | inactive | inactive | inactive | inactive | inactive | inactive | inactive | inactive | Non-toxic | inactive | inactive |
| 100 | CC(=O)N(O)CCCS(=O)(=O)NC(=O)c1ccccc1 | inactive | inactive | inactive | inactive | inactive | inactive | inactive | inactive | Non-toxic | inactive | inactive |
